What was measured:
[1] = tested on: Corynebacterium ammoniagenes strain CJ112 (ATCC-6872); assay: Growth on minimal agar medium containing the agent; biochemical properties of parent strain; format: cell-based
Experimental: (§1) The biochemical properties of representative variants of the novel strain CJIP009 according to the present invention is shown in the following Table 1 (This invention is not limited to the following properties).
(§2) Corynebacterium ammoniagenes strain CJ112 (ATCC-6872), the parent strain, was suspended to 10^7˜10^8 cells/mL in the phosphate buffer (pH 7.0) or citrate buffer (pH 5.5). N-methyl-N′-nitro-N-nitrosoguanidine (NTG) was added to a final concentration of 10˜50 μg/mL at room temperature or 32° C. After 20˜40 minutes, cells were washed twice with 0.85% saline. Colonies were obtained by suitably suspending and spreading cells on a minimal medium (Medium 2) containing 1.7% agar. Then, each colony was tooth picked on to the minimal medium (Medium 2) containing 1.7% agar and on the minimal medium (Medium 2) containing 1.7% agar and […] of lysozyme. First, microorganisms that grew on the minimal medium containing 1.7% agar, but not on the minimal medium containing 40 μg/mL of lysozyme were selected. […] The colony of highly lysozyme sensitive microorganisms was cultivated on a nutrition medium (Medium 1), then cultivated for 24 hours on a seed medium (Medium 3), and cultivated for 3˜4 days on a culture medium (Medium 4) thereby to select LY002 that can produce 5′-inosinic acid accumulated in the culture medium at the largest amounts.

[2] = tested on: Corynebacterium ammoniagenes CJIP009 (KCCM-10226); assay: Growth on minimal agar medium containing the agent; biochemical properties of mutant CJIP009; format: cell-based; details: strain CJIP009 (KCCM-10226)
Experimental: The protocol by which the mutant microorganims of the present invention was isolated began with strain CJ 12 as the parental strain and consisted of several iterations of mutagenesis and screening. In each iteration, microorganisms were treated with X-ray irradiation, ultraviolet ray irradiation, and/or a chemical mutagen, such as N-methyl-N′-nitro-N-nitrosoguanidine (NTG), diethyl sulfate, ethyl amine, etc., and then screened for 5′-inosinic acid production. Treated bacteria were suitably suspended and spread on a minimal medium (Medium 2) containing 1.7% agar and each concentration of variants. Then, each colony was cultivated on a nutrition medium (Medium 1) followed by a seed medium (Medium 3) for 24 hours and a fermentation medium (Medium 4) for […]. Colonies that produced the highest levels of 5′-inosinic acid were selected for subsequent rounds of mutagenesis.
as §1
The mutant of Example 5, strain CITP13, was used as the parent strain for Example 6. CITP13 was suspended to 10^7˜10^8 cells/mL in the phosphate buffer (pH 7.0) or citrate buffer (pH 5.5). NTG mutagenesis was performed as in Example 1. Colonies were obtained by suitably suspending and spreading cells on a 3 minimal media (Medium 2), which contained 1.7% agar and 50 μg/ml, 75 μg/ml, or 100 μg/mL of azaserine, respectively. Then, each colony was cultivated on the nutrition medium (Medium 1), then cultivated for 24 hours on a seed medium (Medium 3), and cultivated for 3–4 days on a culture medium (Medium 4) thereby to select CJIP009 (KCCM-10226) that can produce 5′-inosinic acid accumulated in the culture medium at the largest amounts.

[3] = tested on: CISM10; assay: Growth on minimal agar medium containing the agent, strain CISM10; format: cell-based, Corynebacterium ammoniagenes
Experimental: The mutant of Example 1, strain LY002, was used as the parent strain for Example 2. LY002 was suspended to 10^7˜10^8 cells/mL in the phosphate buffer (pH 7.0) or citrate buffer (pH 5.5). NTG mutagenesis was performed as in Example 1. Colonies were obtained by suitably suspending and spreading cells on a 3 minimal media (Medium 2), which contained 1.7% agar and 1,000 μg/ml, 1,500 μg/mL or 2,000μg/mL of streptomycin, respectively. Then, each colony was cultivated on the nutrition medium (Medium 1), then cultivated for 24 hours on a seed medium (Medium 3), and cultivated for 3˜4 days on a culture medium (Medium 4) thereby to select CISM10 that can produce 5′-inosinic acid accumulated in the culture medium at the largest amounts.
The mutant of Example 2, strain CISM10, was used as the parent strain for Example 3. CISM10 was suspended to 10^7˜10^8 cells/mL in the phosphate buffer (pH 7.0) or citrate buffer (pH 5.5). NTG mutagenesis was performed as in Example 1. Colonies were obtained by suitably suspending and spreading cells on a 3 minimal media (Medium 2), which contained 1.7% agar and 1,500 μg/ml, 2,500 μg/ml, or 3,500 μg/mL of 3,4-dehydroproline, respectively. Then, each colony was cultivated on the nutrition medium (Medium 1), then cultivated for 24 hours on a seed medium (Medium 3), and cultivated for 3–4 days on a culture medium (Medium 4) thereby to select […] that can produce 5′-inosinic acid accumulated in the culture medium at the largest amounts.

[4] = tested on: CS101; assay: Growth on minimal agar medium containing the agent, strain CS101; format: cell-based, Corynebacterium ammoniagenes
[5] = tested on: CITP13; assay: Growth on minimal agar medium containing the agent, strain CITP13; format: cell-based, Corynebacterium ammoniagenes
Experimental: The mutant of Example 4, strain CIAC12, was used as the parent strain for Example 5. CIAC12 was suspended to 10^7˜10^8 cells/mL in the phosphate buffer (pH 7.0) or citrate buffer (pH 5.5). NTG mutagenesis was performed as in Example 1. Colonies were obtained by suitably suspending and spreading cells on a 3 minimal media (Medium 2), which contained 1.7% agar and 20 μg/ml, 50 μg/ml, or 100 μg/mL of L-thiazolidine-4-carboxylic acid, respectively. Then, each colony was cultivated on the nutrition medium (Medium 1), then cultivated for 24 hours on a seed medium (Medium 3), and, cultivated for 3˜4 days on a culture medium (Medium 4) thereby to select CITP13 that can produce 5′-inosinic acid accumulated in the culture medium at the largest amounts.
The mutant of Example 5, strain CITP13, was used as the parent strain for Example 6. CITP13 was suspended to 10^7˜10^8 cells/mL in the phosphate buffer (pH 7.0) or citrate buffer (pH 5.5). NTG mutagenesis was performed as in Example 1. Colonies were obtained by suitably suspending and spreading cells on a 3 minimal media (Medium 2), which contained 1.7% agar and 50 μg/ml, 75 μg/ml, or 100 μg/mL of azaserine, respectively. […]

[6] = tested on: CIAC12; assay: Growth on minimal agar medium containing the agent, strain CIAC12; format: cell-based, Corynebacterium ammoniagenes
Experimental: The mutant of Example 3, strain CS101, was used as the parent strain for Example 4. CS101 was suspended to 10^7˜10^8 cells/mL in the phosphate buffer (pH 7.0) or citrate buffer (pH 5.5). NTG muta genesis was performed as in Example 1. Colonies were obtained by suitably suspending and spreading cells on a 3 minimal media (Medium 2), which contained 1.7% agar and 10 μg/ml, 20 μg/ml, or 30 μg/mL of L-azetidine-2-carboxylic acid, respectively. Then, each colony was cultivated on the nutrition medium (Medium 1), then cultivated for 24 hours on a seed medium (Medium 3), and cultivated for 3˜4 days on a culture medium (Medium 4), thereby to select CIAC12 that can produce 5′-inosinic acid accumulated in the culture medium at the largest amounts.

[7] = tested on: the present strain; assay: Effect of amino acids on synthesis of 5'-inosinic acid by direct fermentation; format: cell-based, Corynebacterium ammoniagenes; details: added to the medium
From the text: Accordingly, the present inventors tested the effect of various amino acids on the synthesis of 5′-inosinic acid by direct fermentation. As the result, the inventors determined that the fermentation concentration of 5′-inosinic acid increased upon addition of L-glutamine to the medium. The inventors further determined that the appropriate supply of L-glutamine to the present strain is a rate-limiting step in the synthesis of 5′-inosinic acid.

[8] = tested on: LY002; assay: Growth on minimal agar medium containing the agent, strain LY002; format: cell-based, Corynebacterium ammoniagenes
Experimental: as §2
The mutant of Example 1, strain LY002, was used as the parent strain for Example 2. LY002 was suspended to 10^7˜10^8 cells/mL in the phosphate buffer (pH 7.0) or citrate buffer (pH 5.5). NTG mutagenesis was performed as in Example 1. […]

O=C(O)C1C=CCN1 (stereo not shown) [3,4-dehydroproline]
Resistance to agent (concentration) ([1]; strain ATCC6872): 1,000 μg/ml
Resistance to agent (concentration) [2]: 3,500 μg/ml
Concentration of 3,4-dehydroproline at which the microorganism shows resistance [3]: 1,000 μg/ml
Concentration of 3,4-dehydroproline at which the microorganism shows resistance [4]: 3,500 μg/ml

[N-]=[N+]=CC(=O)OC[C@H](N)C(=O)O [Azaserine]
Resistance to agent (concentration) ([1]; strain ATCC6872): 25 µg/mL
Concentration of azaserine at which the microorganism shows resistance [2]: 100 µg/mL
Resistance to agent (concentration) [2]: 100 µg/mL
Concentration of azaserine at which the microorganism shows resistance [5]: 25 µg/mL

O=C(O)[C@@H]1CCN1 [L-azetidine-2-carboxylic acid]
Resistance to agent (concentration) ([1]; strain ATCC6872): 5000 µg/mL
Resistance to agent (concentration) [2]: 30000 µg/mL
Concentration of L-azetidine-2-carboxylic acid at which the microorganism shows resistance [3]: 5 mg/mL
Concentration of L-azetidine-2-carboxylic acid at which the microorganism shows resistance [6]: 30 mg/mL

NC(=O)CC[C@H](N)C(=O)O [L-glutamine]
Fermentation concentration of 5'-inosinic acid upon addition to the medium [7]: increased

O=C(O)[C@@H]1CSCN1 [L-thiazolidine-4-carboxylic acid]
Resistance to agent (concentration) ([1]; strain ATCC6872): 10 µg/mL
Resistance to agent (concentration) [2]: 100 µg/mL
Concentration of L-thiazolidine-4-carboxylic acid at which the microorganism shows resistance [3]: 10 µg/mL
Concentration of L-thiazolidine-4-carboxylic acid at which the microorganism shows resistance [4]: 100 µg/mL

[H]/N=C(/N)N[C@H]1[C@H](O)[C@@H](O)[C@H](O[C@@H]2O[C@@H](C)[C@](O)(C=O)[C@H]2O[C@@H]2O[C@@H](CO)[C@H](O)[C@@H](O)[C@@H]2NC)[C@@H](N/C(N)=N\[H])[C@@H]1O [Streptomycin, streptomycin]
Resistance to agent (concentration) ([1]; strain ATCC6872): 500 µg/mL
Resistance to agent (concentration) [2]: 2,000 μg/ml
Concentration of streptomycin at which the microorganism shows resistance [8]: 500 µg/mL
Concentration of streptomycin at which the microorganism shows resistance [3]: 2,000 μg/ml

lysozyme
Sensitivity to lysozyme (minimal growth inhibition concentration) ([1]; strain ATCC6872): 80 µg/mL
Concentration of lysozyme at which the microorganism shows sensitivity ([1]; strain CJ112): 80 µg/mL
Sensitivity to lysozyme (minimal growth inhibition concentration) [2]: 8 µg/mL
Concentration of lysozyme at which the microorganism shows sensitivity [8]: 8 µg/mL

Reference: US7244608B2, “Microorganism producing 5′-inosinic acid and process for producing 5′-inosinic acid using the same” (priority 2000, dated 2007)
